{"source": "patent US7825118B2", "about": "“Inhibitors of bruton's tyrosine kinase” (Pharmacyclics, Inc., priority 2006, dated 2010)", "key": {"Btk": {"biological_target": "Btk (Homo sapiens, UniProt Q06187)", "sequence (Q06187 whole entry)": "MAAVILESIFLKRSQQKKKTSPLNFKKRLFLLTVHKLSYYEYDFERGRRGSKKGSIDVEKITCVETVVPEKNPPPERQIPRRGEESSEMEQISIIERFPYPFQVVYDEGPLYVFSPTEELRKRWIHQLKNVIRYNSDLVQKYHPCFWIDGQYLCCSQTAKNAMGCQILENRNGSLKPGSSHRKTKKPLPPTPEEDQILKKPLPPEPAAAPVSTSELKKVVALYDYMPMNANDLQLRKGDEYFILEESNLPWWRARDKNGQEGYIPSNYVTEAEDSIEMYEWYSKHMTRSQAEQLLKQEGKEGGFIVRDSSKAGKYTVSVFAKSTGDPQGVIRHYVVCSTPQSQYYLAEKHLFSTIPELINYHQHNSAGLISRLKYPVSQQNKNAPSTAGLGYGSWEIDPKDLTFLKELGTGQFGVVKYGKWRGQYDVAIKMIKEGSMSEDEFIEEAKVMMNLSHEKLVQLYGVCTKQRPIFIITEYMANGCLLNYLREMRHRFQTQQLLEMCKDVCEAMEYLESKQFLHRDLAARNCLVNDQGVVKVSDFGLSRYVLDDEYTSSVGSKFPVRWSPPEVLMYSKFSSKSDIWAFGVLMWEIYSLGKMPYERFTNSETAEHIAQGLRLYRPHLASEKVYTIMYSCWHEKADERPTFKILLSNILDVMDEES", "assay": "Btk acellular kinase assay (TR-FRET)", "assay_type": "biochemical"}, "JAK3": {"biological_target": "JAK3 (Homo sapiens, UniProt P52333)", "sequence (P52333 whole entry)": "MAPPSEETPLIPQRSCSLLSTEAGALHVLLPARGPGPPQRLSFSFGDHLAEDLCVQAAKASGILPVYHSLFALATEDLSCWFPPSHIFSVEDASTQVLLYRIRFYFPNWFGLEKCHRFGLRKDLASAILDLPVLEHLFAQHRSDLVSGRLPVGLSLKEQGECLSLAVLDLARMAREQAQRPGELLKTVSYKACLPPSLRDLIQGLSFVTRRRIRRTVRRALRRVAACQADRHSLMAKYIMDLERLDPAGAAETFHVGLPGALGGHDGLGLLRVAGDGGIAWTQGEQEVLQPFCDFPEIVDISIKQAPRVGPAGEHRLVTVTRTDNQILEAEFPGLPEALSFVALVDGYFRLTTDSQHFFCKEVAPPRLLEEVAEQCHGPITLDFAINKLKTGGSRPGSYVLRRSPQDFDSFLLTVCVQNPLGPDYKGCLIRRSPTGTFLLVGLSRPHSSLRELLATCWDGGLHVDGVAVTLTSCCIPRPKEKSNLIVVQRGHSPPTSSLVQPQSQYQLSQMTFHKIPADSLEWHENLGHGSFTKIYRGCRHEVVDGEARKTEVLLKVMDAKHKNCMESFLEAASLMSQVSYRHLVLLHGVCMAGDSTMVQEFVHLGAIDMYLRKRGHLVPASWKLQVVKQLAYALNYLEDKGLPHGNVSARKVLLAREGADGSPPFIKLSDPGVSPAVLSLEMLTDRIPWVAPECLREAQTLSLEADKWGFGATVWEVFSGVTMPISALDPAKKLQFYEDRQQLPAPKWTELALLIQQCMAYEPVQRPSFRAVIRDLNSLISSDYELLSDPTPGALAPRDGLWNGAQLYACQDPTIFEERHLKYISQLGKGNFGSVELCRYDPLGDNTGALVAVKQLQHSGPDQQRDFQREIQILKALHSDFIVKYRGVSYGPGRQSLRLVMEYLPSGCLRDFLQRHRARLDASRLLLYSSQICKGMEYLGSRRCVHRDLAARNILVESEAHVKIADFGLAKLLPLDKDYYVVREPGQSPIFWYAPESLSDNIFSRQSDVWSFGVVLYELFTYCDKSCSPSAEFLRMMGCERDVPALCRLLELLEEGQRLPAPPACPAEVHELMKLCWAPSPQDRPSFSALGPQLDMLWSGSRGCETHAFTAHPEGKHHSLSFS", "assay": "Panel of kinases: JAK3", "assay_type": "biochemical", "conditions": "Cys: Y"}, "BT-549": {"tested_on": "BT-549", "assay": "Cytotoxicity BT-549", "assay_type": "cell-based", "conditions": "Homo sapiens, Breast"}, "Raji": {"tested_on": "Raji", "assay": "Cytotoxicity Raji", "assay_type": "cell-based", "conditions": "Homo sapiens, Lymphoma"}, "SK-BR3": {"tested_on": "SK-BR3", "assay": "Cytotoxicity SK-BR3", "assay_type": "cell-based", "conditions": "Homo sapiens, SK-BR-3; Breast"}, "DOHH2": {"tested_on": "DOHH2", "assay": "Cytotoxicity DOHH2", "assay_type": "cell-based", "conditions": "for GI50: Homo sapiens, DOHH-2, Lymphoma"}, "MDA-MB-231": {"tested_on": "MDA-MB-231", "assay": "Cytotoxicity MDA-MB-231", "assay_type": "cell-based", "conditions": "Homo sapiens, Breast"}, "MDA-MB-453": {"tested_on": "MDA-MB-453", "assay": "Cytotoxicity MDA-MB-453", "assay_type": "cell-based", "conditions": "Homo sapiens, Breast"}, "DLCL2": {"tested_on": "DLCL2", "assay": "Cytotoxicity DLCL2", "assay_type": "cell-based", "conditions": "Lymphoma"}, "DHL-6": {"tested_on": "DHL-6", "assay": "Cytotoxicity DHL-6", "assay_type": "cell-based", "conditions": "Lymphoma"}, "A549": {"tested_on": "A549", "assay": "Cytotoxicity A549", "assay_type": "cell-based", "conditions": "Homo sapiens, Lung"}, "MDA-MB-468": {"tested_on": "MDA-MB-468", "assay": "Cytotoxicity MDA-MB-468", "assay_type": "cell-based", "conditions": "Homo sapiens, Breast"}, "Mino": {"tested_on": "Mino", "assay": "Cytotoxicity Mino", "assay_type": "cell-based", "conditions": "Homo sapiens, Lymphoma"}, "CRL-8062": {"tested_on": "CRL-8062", "assay": "Cytotoxicity CRL-8062", "assay_type": "cell-based", "conditions": "Myeloma"}, "BLK": {"biological_target": "BLK (Homo sapiens, UniProt P51451)", "sequence (P51451 whole entry)": "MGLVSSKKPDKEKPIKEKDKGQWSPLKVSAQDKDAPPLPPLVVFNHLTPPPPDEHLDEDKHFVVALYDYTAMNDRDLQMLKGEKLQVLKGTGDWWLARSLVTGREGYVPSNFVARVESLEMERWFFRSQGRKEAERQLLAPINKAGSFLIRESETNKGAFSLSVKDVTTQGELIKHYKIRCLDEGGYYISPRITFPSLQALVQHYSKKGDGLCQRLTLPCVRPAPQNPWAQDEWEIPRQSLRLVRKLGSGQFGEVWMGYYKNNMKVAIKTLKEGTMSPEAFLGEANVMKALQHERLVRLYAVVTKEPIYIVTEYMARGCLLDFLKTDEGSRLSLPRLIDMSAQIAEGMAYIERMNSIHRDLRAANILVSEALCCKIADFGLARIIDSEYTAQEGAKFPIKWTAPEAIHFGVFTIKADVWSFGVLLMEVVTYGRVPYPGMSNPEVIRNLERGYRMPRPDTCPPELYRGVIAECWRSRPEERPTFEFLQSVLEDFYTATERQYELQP", "assay": "Panel of kinases: BLK", "assay_type": "biochemical", "conditions": "Cys: Y"}, "NCI-H460": {"tested_on": "NCI-H460", "assay": "Cytotoxicity NCI-H460", "assay_type": "cell-based", "conditions": "Homo sapiens, Lung"}, "ITK": {"biological_target": "ITK (Homo sapiens, UniProt Q08881)", "sequence (Q08881 whole entry)": "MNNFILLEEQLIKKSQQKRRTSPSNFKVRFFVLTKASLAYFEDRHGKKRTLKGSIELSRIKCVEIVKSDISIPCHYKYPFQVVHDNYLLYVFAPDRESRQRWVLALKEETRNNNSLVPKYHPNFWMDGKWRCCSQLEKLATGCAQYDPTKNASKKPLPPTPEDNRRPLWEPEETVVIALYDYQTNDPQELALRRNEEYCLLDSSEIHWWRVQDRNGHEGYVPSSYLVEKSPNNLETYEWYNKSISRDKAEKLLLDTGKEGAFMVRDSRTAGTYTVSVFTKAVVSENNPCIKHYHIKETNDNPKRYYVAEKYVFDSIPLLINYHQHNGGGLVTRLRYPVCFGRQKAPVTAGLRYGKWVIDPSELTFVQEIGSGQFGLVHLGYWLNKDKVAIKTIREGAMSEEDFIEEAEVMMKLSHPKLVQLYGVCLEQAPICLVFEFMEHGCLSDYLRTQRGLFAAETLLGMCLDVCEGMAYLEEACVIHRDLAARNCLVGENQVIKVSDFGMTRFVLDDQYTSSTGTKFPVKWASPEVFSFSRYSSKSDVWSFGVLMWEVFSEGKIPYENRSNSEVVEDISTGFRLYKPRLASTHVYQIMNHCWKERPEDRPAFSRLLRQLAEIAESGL", "assay": "Panel of kinases: ITK", "assay_type": "biochemical", "conditions": "Cys: Y"}, "MDA-MB-361": {"tested_on": "MDA-MB-361", "assay": "Cytotoxicity MDA-MB-361", "assay_type": "cell-based", "conditions": "Homo sapiens, Breast"}, "Ramos": {"tested_on": "Ramos", "assay": "Sensitivity of Ramos cell line", "assay_type": "cell-based, human", "source_text": "(§1) To identify biomarkers that correlate with response to Compound 4, phosphorylation events in the BCR signal transduction pathway were investigated. […]."}, "pERK in DOHH2 cells": {"tested_on": "pERK in DOHH2 cells", "assay": "Basal pERK levels in unstimulated DOHH2 cells", "assay_type": "cell-based", "conditions": "Homo sapiens, DOHH-2, read-out: decrease of pERK levels IC50", "source_text": "as §1\n. However, when we examined basal phosphorylation levels, we found higher basal phosphorylation in DOHH2 compared to Ramos, with phospho-ERK in particular indicating higher levels of basal or tonic signaling in DOHH2. […]"}, "Egr-1": {"tested_on": "Egr-1", "assay": "Expression of ERK transcriptional target Egr-1", "assay_type": "cell-based", "conditions": "1 uM"}, "[1]": {"tested_on": "Btk expressing B cell lymphoma cell lines", "assay": "Panel of nine Btk expressing B cell lymphoma cell lines", "assay_type": "cell-based"}, "DHL-6 cells": {"tested_on": "DHL-6 cells", "assay": "Growth of DHL-6 cells (Alamar Blue, FIG. 3)", "assay_type": "cell-based", "conditions": "3E4 cells/well, complete media, 0.1% DMSO"}, "[2]": {"conditions": "acellular TR-FRET kinase assay, ATP at Km, read-out: Btk IC50"}}, "note": "Where two headings read alike, the source gives them in different places.", "data": [{"smiles": "C=CC(=O)N1CC[C@@H](n2nc(-c3ccc(Oc4ccccc4)cc3)c3c(N)ncnc32)C1", "note": "[Compound 11, 1-((R)-3-(4-amino-3-(4-phenoxyphenyl)-1H-pyrazolo[3,4-d]pyrimidin-1-yl)pyrrolidin-1-yl)prop-2-en-1-one]", "values": [{"measurement": "IC50", "setting": "Btk; [2]", "value": 1.6, "unit": "nM"}]}, {"smiles": "C=CC(=O)N[C@H]1CC[C@@H](n2nc(-c3ccc(Oc4ccccc4)cc3)c3c(N)ncnc32)CC1", "note": "[Compound 10, N-((1s,4s)-4-(4-amino-3-(4-phenoxyphenyl)-1H-pyrazolo[3,4-d]pyrimidin-1-yl)cyclohexyl)acrylamide]", "values": [{"measurement": "IC50", "setting": "JAK3", "value": 8280, "unit": "nM"}, {"measurement": "GI50", "setting": "BT-549", "value": 2.79, "unit": "µM"}, {"measurement": "GI50", "setting": "Raji", "value": "> 10", "unit": "µM"}, {"measurement": "GI50", "setting": "SK-BR3", "value": 0.24, "unit": "µM"}, {"measurement": "GI50", "setting": "DOHH2", "value": 0.011, "unit": "µM"}, {"measurement": "GI50", "setting": "MDA-MB-231", "value": "> 10", "unit": "µM"}, {"measurement": "GI50", "setting": "MDA-MB-453", "value": 0.54, "unit": "µM"}, {"measurement": "GI50", "setting": "DLCL2", "value": 4.82, "unit": "µM"}, {"measurement": "GI50", "setting": "DHL-6", "value": 0.009, "unit": "µM"}, {"measurement": "GI50", "setting": "A549", "value": 3.13, "unit": "µM"}, {"measurement": "GI50", "setting": "MDA-MB-468", "value": "> 10", "unit": "µM"}, {"measurement": "GI50", "setting": "Mino", "value": 0.12, "unit": "µM"}, {"measurement": "GI50", "setting": "CRL-8062", "value": "> 10", "unit": "µM"}, {"measurement": "IC50", "setting": "BLK", "value": 0.17, "unit": "nM"}, {"measurement": "GI50", "setting": "NCI-H460", "value": "> 10", "unit": "µM"}, {"measurement": "IC50", "setting": "ITK", "value": 910, "unit": "nM"}, {"measurement": "GI50", "setting": "MDA-MB-361", "value": "> 10", "unit": "µM"}]}, {"smiles": "C=CC(=O)N1CCCC(n2nc(-c3ccc(Oc4ccccc4)cc3)c3c(N)ncnc32)C1", "note": "(centres unmarked) [Compound 4, 1-(3-(4-amino-3-(4-phenoxyphenyl)-1H-pyrazolo[3,4-d]pyrimidin-1-yl)piperidin-1-yl)prop-2-en-1-one]", "values": [{"measurement": "sensitivity of cell line Ramos", "setting": "Ramos", "value": "resistant"}, {"measurement": "GI50", "setting": "BT-549", "value": "> 10", "unit": "µM"}, {"measurement": "GI50", "setting": "Raji", "value": "> 10", "unit": "µM"}, {"measurement": "GI50", "setting": "SK-BR3", "value": 0.44, "unit": "µM"}, {"measurement": "sensitivity of cell line DOHH2", "setting": "DOHH2", "value": "sensitive"}, {"measurement": "GI50", "setting": "DOHH2", "value": 0.77, "unit": "µM"}, {"measurement": "GI50", "setting": "MDA-MB-231", "value": "> 10", "unit": "µM"}, {"measurement": "GI50", "setting": "MDA-MB-453", "value": "< 0.001", "unit": "µM"}, {"measurement": "IC50", "setting": "pERK in DOHH2 cells", "value": "< 10", "unit": "nM"}, {"measurement": "GI50", "setting": "DLCL2", "value": 1.3, "unit": "µM"}, {"measurement": "GI50", "setting": "DHL-6", "value": 0.75, "unit": "µM"}, {"measurement": "GI50", "setting": "A549", "value": "> 10", "unit": "µM"}, {"measurement": "GI50", "setting": "MDA-MB-468", "value": "> 10", "unit": "µM"}, {"measurement": "GI50", "setting": "Mino", "value": 1.9, "unit": "µM"}, {"measurement": "time within which Egr-1 expression is reduced", "setting": "Egr-1", "value": "≤ 1", "unit": "h"}, {"measurement": "GI50", "setting": "CRL-8062", "value": "> 10", "unit": "µM"}, {"measurement": "GI50", "setting": "NCI-H460", "value": "> 10", "unit": "µM"}, {"measurement": "GI50", "setting": "MDA-MB-361", "value": "> 10", "unit": "µM"}, {"measurement": "GI50", "setting": "[1]; B-cell, 5 of seven lines with high basal pERK, read-out: GI50 of sensitive cell lines", "value": "< 1300", "unit": "nM"}, {"measurement": "response of cell lines with low pERK levels", "setting": "[1]; two cell lines with low pERK levels", "value": "resistant"}]}, {"smiles": "C#CC(=O)N1CCCC(n2nc(-c3ccc(Oc4ccccc4)cc3)c3c(N)ncnc32)C1", "note": "(centres unmarked) [Compound 8, 1-(3-(4-amino-3-(4-phenoxyphenyl)-1H-pyrazolo[3,4-d]pyrimidin-1-yl)piperidin-1-yl)prop-2-yn-1-one]", "values": [{"measurement": "IC50", "setting": "Btk", "value": 0.72, "unit": "nM"}]}, {"smiles": "C=CC(=O)N1CCC(n2nc(-c3ccc(Oc4ccccc4)cc3)c3c(N)ncnc32)CC1", "note": "[Compound 9, 1-(4-(4-amino-3-(4-phenoxyphenyl)-1H-pyrazolo[3,4-d]pyrimidin-1-yl)piperidin-1-yl)prop-2-en-1-one]", "values": [{"measurement": "IC50", "setting": "Btk; [2]", "value": 3.6, "unit": "nM"}]}, {"smiles": "CN(C)C/C=C/C(=O)N1CCC[C@@H](n2nc(-c3ccc(Oc4ccccc4)cc3)c3c(N)ncnc32)C1", "note": "[Compound 15, (E)-1-(3-(4-amino-3-(4-phenoxyphenyl)-1H-pyrazolo[3,4-d]pyrimidin-1-yl)piperidin-1-yl)-4-(dimethylamino)but-2-en-1-one]", "values": [{"measurement": "growth of DHL-6 cells", "setting": "DHL-6 cells", "value": "inhibit growth"}]}, {"smiles": "C=CC(=O)N1CC[C@H](n2nc(-c3ccc(Oc4ccccc4)cc3)c3c(N)ncnc32)C1", "note": "[Compound 12, 1-((S)-3-(4-amino-3-(4-phenoxyphenyl)-1H-pyrazolo[3,4-d]pyrimidin-1-yl)pyrrolidin-1-yl)prop-2-en-1-one]", "values": [{"measurement": "IC50", "setting": "Btk; [2]", "value": 1.9, "unit": "nM"}]}, {"smiles": "C/C=C/C(=O)N1CCCC(n2nc(-c3ccc(Oc4ccccc4)cc3)c3c(N)ncnc32)C1", "note": "(centres unmarked) [Compound 5, (E)-1-(3-(4-amino-3-(4-phenoxyphenyl)-1H-pyrazolo[3,4-d]pyrimidin-1-yl)piperidin-1-yl)but-2-en-1-one]", "values": [{"measurement": "fold less potent than 4", "setting": "Btk; Btk potency relative to compound 4", "value": 28, "unit": "fold"}, {"measurement": "IC50", "setting": "Btk; [2]", "value": 20, "unit": "nM"}]}]}
